This test concerns ZIKV. Put plainly: ZIKV reporter virus-based antiviral screening on Huh7 cells. Format: cell-based, Zika virus. The conditions noted are these: Zika virus, Huh-7, 48 h, Huh7 cells infected with recombinant luciferase reporter ZIKV (MOI about 0.1), luciferase signal. The gist of the method: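 Huh7 cells in 2% FBS assay medium infected at MOI about 0.1 with Renilla or Nano luciferase ZIKV premixed with nine-point compound dilutions, 48 hrs at 37° C. Luciferase signal normalized to DMSO controls as 100%; viability optionally by CellTiter-Glo with Rlu virus.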

In general, EC50 refers to the concentration giving half of the maximal effect. Turning to `COC(=O)N[C@H](C(=O)N1CC2(CC2)C[C@H]1c1nc(Cl)c(-c2cc3c4c(c2)OCc2cc(-c5[nH]c([C@@H]6CC7(CC7)CN6C(=O)[C@@H](NC(=O)OC)C(C)(C)C(F)(F)F)nc5Cl)cc(c2-4)OC3)[nH]1)C(C)(C)C(F)(F)F` [Compound 61, dimethyl ((2S,2′S)-((6S,6′S)-((5,10-dihydrochromeno[5,4,3-cde]chromene-2,7-diyl)bis(4-chloro-1H-imidazole-5,2-diyl))bis(5-azaspiro[2.4]heptane-6,5-diyl))bis(4,4,4-trifluoro-3,3-dimethyl-1-oxobutane-1,2-diyl))dicarbamate], the EC50 turned out to be 2.8 nM.
Regarding `CC[C@H](C)[C@H](NC(=O)OC)C(=O)N1CC2(CC2)C[C@H]1c1nc(Cl)c(-c2cc3c4c(c2)OCc2cc(-c5[nH]c([C@@H]6CC7(CC7)CN6C(=O)[C@@H](NC(=O)OC)[C@@H](C)CC)nc5Cl)cc(c2-4)OC3)[nH]1` [Compound 60, dimethyl ((2S,2′S,3S,3′S)-((6S,6′S)-((5,10-dihydrochromeno[5,4,3-cde]chromene-2,7-diyl)bis(4-chloro-1H-imidazole-5,2-diyl))bis(5-azaspiro[2.4]heptane-6,5-diyl))bis(3-methyl-1-oxopentane-1,2-diyl))dicarbamate], the EC50 was determined as 1.7 nM.
On to `COC[C@H]1CC[C@@H](c2nc(Cl)c(-c3cc4c5c(c3)OCc3cc(-c6[nH]c([C@@H]7CC[C@H](COC)N7C(=O)[C@@H](NC(=O)OC)C(C)C)nc6Cl)cc(c3-5)OC4)[nH]2)N1C(=O)[C@@H](NC(=O)OC)C(C)C` [Compound 49, dimethyl ((2S,2′S)-((2R,2′R,5S,5′S)-((5,10-dihydrochromeno[5,4,3-cde]chromene-2,7-diyl)bis(4-chloro-1H-imidazole-5,2-diyl))bis(2-(methoxymethyl)pyrrolidine-5,1-diyl))bis(3-methyl-1-oxobutane-1,2-diyl))dicarbamate], for which the concentration for a half-maximal effect (EC50) stood at 1.9 nM.
The same measure for `COC(=O)N[C@H](C(=O)N1[C@H](c2nc(Cl)c(-c3cc4c5c(c3)OCc3cc(-c6[nH]c([C@@H]7C[C@@H]8C[C@@H]8N7C(=O)[C@@H](NC(=O)OC)C(C)(C)C(F)(F)F)nc6Cl)cc(c3-5)OC4)[nH]2)C[C@@H]2C[C@@H]21)C(C)(C)C(F)(F)F` [Compound 12, dimethyl ((2S,2′S)-((1S,1′S,3S,3′S,5S,5′S)-((5,10-dihydrochromeno[5,4,3-cde]chromene-2,7-diyl)bis(4-chloro-1H-imidazole-5,2-diyl))bis(2-azabicyclo[3.1.0]hexane-3,2-diyl))bis(4,4,4-trifluoro-3,3-dimethyl-1-oxobutane-1,2-diyl))dicarbamate]: 11.9 nM; for `COC(=O)N[C@H](C(=O)N1[C@H](c2nc(Cl)c(-c3cc4c5c(c3)OCc3cc(-c6[nH]c([C@@H]7C[C@@H]8C[C@@H]8N7C(=O)[C@@H](NC(=O)OC)C(C)C)nc6Cl)cc(c3-5)OC4)[nH]2)C[C@@H]2C[C@@H]21)C(C)C` [Compound 10, dimethyl ((2S,2′S)-((1S,1′S,3S,3′S,5S,5′S)-((5,10-dihydrochromeno[5,4,3-cde]chromene-2,7-diyl)bis(4-chloro-1H-imidazole-5,2-diyl))bis(2-azabicyclo[3.1.0]hexane-3,2-diyl))bis(3-methyl-1-oxobutane-1,2-diyl))dicarbamate]: 7 nM.

The values above are taken from patent US12497408B2, “Tetracyclic compounds and methods for the treatment of Zika virus infection” (priority 2021, dated 2025).
